Experimental data from patent US11331369B2, “Endoparasitic depsipeptides” (Zoetis Services LLC, priority 2017, dated 2022).

What follows are molecules tested on microfilariae of Dirofilaria immitis (assay: Dirofilaria immitis, Microfilaria (DiMF) In vitro Assay). Details: 72 h, read-out: DiMF Minimum Effective Dose (MED), approximately 72 hours incubation, microfilariae assessed for survival or paralysis.
Assay type: cell-based

Row | SMILES | minimal effective concentration
1 | Cc1cn(Cc2ccc(C[C@H]3OC(=O)[C@H](CC(C)C)N(C)C(=O)[C@@H](C)OC(=O)[C@H](CC(C)C)N(C)C(=O)[C@@H](Cc4ccc(Cn5cnc(C)c5)cc4)OC(=O)[C@H](CC(C)C)N(C)C(=O)[C@@H](C)OC(=O)[C@H](CC(C)C)N(C)C3=O)cc2)cn1 [Example 6-14, (3S,6R,9S,12R,15S,18R,21S,24R)-3,9,15,21-tetraisobutyl-4,6,10,16,18,22-hexamethyl-12,24-bis(4-((4-methyl-1H-imidazol-1-yl)methyl)benzyl)-1,7,13,19-tetraoxa-4,10,16,22-tetraazacyclotetracosan-2,5,8,11,14,17,20,23-octaone] | 0.01 to 0.1 µM
2 | CC(C)C[C@H]1C(=O)O[C@H](Cc2ccc(Cn3ccnc3CO)cc2)C(=O)N(C)[C@@H](CC(C)C)C(=O)O[C@H](C)C(=O)N(C)[C@@H](CC(C)C)C(=O)O[C@H](Cc2ccc(Cn3ccnc3CO)cc2)C(=O)N(C)[C@@H](CC(C)C)C(=O)O[C@H](C)C(=O)N1C [Example 6-16, (3S,6R,9S,12R,15S,18R,21S,24R)-6,18-bis(4-((2-(hydroxymethyl)-1H-imidazol-1-yl)methyl)benzyl)-3,9,15,21-tetraisobutyl-4,10,12,16,22,24-hexamethyl-1,7,13,19-tetraoxa-4,10,16,22-tetraazacyclotetracosan-2,5,8,11,14,17,20,23-octaone] | 0.001 to 0.01 µM
3 | CC(C)C[C@H]1C(=O)O[C@H](Cc2ccc(Cn3ccnc3-c3cncs3)cc2)C(=O)N(C)[C@@H](CC(C)C)C(=O)O[C@H](C)C(=O)N(C)[C@@H](CC(C)C)C(=O)O[C@H](Cc2ccc(Cn3ccnc3-c3cncs3)cc2)C(=O)N(C)[C@@H](CC(C)C)C(=O)O[C@H](C)C(=O)N1C [Example 6-18, (3S,6R,9S,12R,15S,18R,21S,24R)-3,9,15,21-tetraisobutyl-4,6,10,16,18,22-hexamethyl-12,24-bis(4-((2-(thiazol-5-yl)-1H-imidazol-1-yl)methyl)benzyl)-1,7,13,19-tetraoxa-4,10,16,22-tetraazacyclotetracosan-2,5,8,11,14,17,20,23-octaone] | 0.01 to 0.1 µM
4 | COCc1nccn1Cc1ccc(C[C@H]2OC(=O)[C@H](CC(C)C)N(C)C(=O)[C@@H](C)OC(=O)[C@H](CC(C)C)N(C)C(=O)[C@@H](Cc3ccc(Cn4ccnc4COC)cc3)OC(=O)[C@H](CC(C)C)N(C)C(=O)[C@@H](C)OC(=O)[C@H](CC(C)C)N(C)C2=O)cc1 [Example 6-19, (3S,6R,9S,12R,15S,18R,21S,24R)-3,9,15,21-tetraisobutyl-6,18-bis(4-((2-(methoxymethyl)-1H-imidazol-1-yl)methyl)benzyl)-4,10,12,16,22,24-hexamethyl-1,7,13,19-tetraoxa-4,10,16,22-tetraazacyclotetracosan-2,5,8,11,14,17,20,23-octaone] | 0.001 to 0.01 µM
5 | Cc1nccn1Cc1ccc(C[C@H]2OC(=O)[C@H](CC(C)C)N(C)C(=O)[C@@H](C)OC(=O)[C@H](CC(C)C)N(C)C(=O)[C@@H](Cc3cccc(Cn4ccnc4C)c3)OC(=O)[C@H](CC(C)C)N(C)C(=O)[C@@H](C)OC(=O)[C@H](CC(C)C)N(C)C2=O)cc1 [Example 7-1, (3S,6R,9S,12R,15S,18R,21S,24R)-3,9,15,21-tetraisobutyl-4,6,10,16,18,22-hexamethyl-12-[[3-[(2-methylimidazol-1-yl)methyl]phenyl]methyl]-24-[[4-[(2-methylimidazol-1-yl)methyl]phenyl]methyl]-1,7,13,19-tetraoxa-4,10,16,22-tetrazacyclotetracosane-2,5,8,11,14,17,20,23-octaone] | 0.01 to 0.1 µM
6 | CC(C)C[C@H]1C(=O)O[C@H](Cc2cccc(Cn3ccnc3)c2)C(=O)N(C)[C@@H](CC(C)C)C(=O)O[C@H](C)C(=O)N(C)[C@@H](CC(C)C)C(=O)O[C@H](Cc2ccc(Cn3ccnc3)cc2)C(=O)N(C)[C@@H](CC(C)C)C(=O)O[C@H](C)C(=O)N1C [Example 7-2, (3S,6R,9S,12R,15S,18R,21S,24R)-6-(3-((1H-imidazol-1-yl)methyl)benzyl)-18-(4-((1H-imidazol-1-yl)methyl)benzyl)-3,9,15,21-tetraisobutyl-4,10,12,16,22,24-hexamethyl-1,7,13,19-tetraoxa-4,10,16,22-tetraazacyclotetracosan-2,5,8,11,14,17,20,23-octaone] | 0.01 to 0.1 µM
7 | CCc1nccn1Cc1ccc(C[C@H]2OC(=O)[C@H](CC(C)C)N(C)C(=O)[C@@H](C)OC(=O)[C@H](CC(C)C)N(C)C(=O)[C@@H](Cc3cccc(Cn4ccnc4CC)c3)OC(=O)[C@H](CC(C)C)N(C)C(=O)[C@@H](C)OC(=O)[C@H](CC(C)C)N(C)C2=O)cc1 [Example 7-4, (3S,6R,9S,12R,15S,18R,21S,24R)-6-[[3-[(2-ethylimidazol-1-yl)methyl]phenyl]methyl]-18-[[4-[(2-ethylimidazol-1-yl)methyl]phenyl]methyl]-3,9,15,21-tetraisobutyl-4,10,12,16,22,24-hexamethyl-1,7,13,19-tetraoxa-4,10,16,22-tetrazacyclotetracosane-2,5,8,11,14,17,20,23-octaone] | 0.01 to 0.1 µM
8 | CC(C)C[C@H]1C(=O)O[C@H](Cc2cccc(Cn3ccnc3C3CC3)c2)C(=O)N(C)[C@@H](CC(C)C)C(=O)O[C@H](C)C(=O)N(C)[C@@H](CC(C)C)C(=O)O[C@H](Cc2ccc(Cn3ccnc3C3CC3)cc2)C(=O)N(C)[C@@H](CC(C)C)C(=O)O[C@H](C)C(=O)N1C [Example 7-7, (3S,6R,9S,12R,15S,18R,21S,24R)-6-[[3-[(2-cyclopropylimidazol-1-yl)methyl]phenyl]methyl]-18-[[4-[(2-cyclopropylimidazol-1-yl)methyl]phenyl]methyl]-3,9,15,21-tetraisobutyl-4,10,12,16,22,24-hexamethyl-1,7,13,19-tetraoxa-4,10,16,22-tetrazacyclotetracosane-2,5,8,11,14,17,20,23-octaone] | 0.01 to 0.1 µM
9 | CC(C)C[C@H]1C(=O)O[C@H](Cc2cccc(Cn3ccnc3CO)c2)C(=O)N(C)[C@@H](CC(C)C)C(=O)O[C@H](C)C(=O)N(C)[C@@H](CC(C)C)C(=O)O[C@H](Cc2ccc(Cn3ccnc3CO)cc2)C(=O)N(C)[C@@H](CC(C)C)C(=O)O[C@H](C)C(=O)N1C [Example 7-11, (3S,6R,9S,12R,15S,18R,21S,24R)-6-(3-((2-(hydroxymethyl)-1H-imidazol-1-yl)methyl)benzyl)-18-(4-((2-(hydroxymethyl)-1H-imidazol-1-yl)methyl)benzyl)-3,9,15,21-tetraisobutyl-4,10,12,16,22,24-hexamethyl-1,7,13,19-tetraoxa-4,10,16,22-tetraazacyclotetracosan-2,5,8,11,14,17,20,23-octaone] | 0.01 to 0.1 µM
10 | CC(C)C[C@H]1C(=O)O[C@H](Cc2ccc(Cn3ccnc3)cc2)C(=O)N(C)[C@@H](CC(C)C)C(=O)O[C@H](C)C(=O)N(C)[C@@H](CC(C)C)C(=O)O[C@H](Cc2ccccc2)C(=O)N(C)[C@@H](CC(C)C)C(=O)O[C@H](C)C(=O)N1C [Example 8-2, (3S,6R,9S,12R,15S,18R,21S,24R)-6-benzyl-18-[[4-(imidazol-1-ylmethyl)phenyl]methyl]-3,9,15,21-tetraisobutyl-4,10,12,16,22,24-hexamethyl-1,7,13,19-tetraoxa-4,10,16,22-tetrazacyclotetracosane-2,5,8,11,14,17,20,23-octaone] | 0.01 to 0.1 µM
11 | Cc1cn(Cc2ccc(C[C@H]3OC(=O)[C@H](CC(C)C)N(C)C(=O)[C@@H](C)OC(=O)[C@H](CC(C)C)N(C)C(=O)[C@@H](Cc4ccccc4)OC(=O)[C@H](CC(C)C)N(C)C(=O)[C@@H](C)OC(=O)[C@H](CC(C)C)N(C)C3=O)cc2)c(C)n1 [Example 8-5, (3S,6R,9S,12R,15S,18R,21S,24R)-6-benzyl-18-(4-((2,4-dimethyl-1H-imidazol-1-yl)methyl)benzyl)-3,9,15,21-tetraisobutyl-4,10,12,16,22,24-hexamethyl-1,7,13,19-tetraoxa-4,10,16,22-tetraazacyclotetracosan-2,5,8,11,14,17,20,23-octaone] | 0.01 to 0.1 µM
12 | CC(C)C[C@H]1C(=O)O[C@H](Cc2ccc(Cn3ccnc3I)cc2)C(=O)N(C)[C@@H](CC(C)C)C(=O)O[C@H](C)C(=O)N(C)[C@@H](CC(C)C)C(=O)O[C@H](Cc2ccccc2)C(=O)N(C)[C@@H](CC(C)C)C(=O)O[C@H](C)C(=O)N1C [Example 8-10, (3S,6R,9S,12R,15S,18R,21S,24R)-6-benzyl-18-(4-((2-iodo-1H-imidazol-1-yl)methyl)benzyl)-3,9,15,21-tetraisobutyl-4,10,12,16,22,24-hexamethyl-1,7,13,19-tetraoxa-4,10,16,22-tetraazacyclotetracosan-2,5,8,11,14,17,20,23-octaone] | 0.01 to 0.1 µM
13 | Cc1ncn(Cc2ccc(C[C@H]3OC(=O)[C@H](CC(C)C)N(C)C(=O)[C@@H](C)OC(=O)[C@H](CC(C)C)N(C)C(=O)[C@@H](Cc4ccccc4)OC(=O)[C@H](CC(C)C)N(C)C(=O)[C@@H](C)OC(=O)[C@H](CC(C)C)N(C)C3=O)cc2)c1C [Example 8-11, (3S,6R,9S,12R,15S,18R,21S,24R)-6-benzyl-18-(4-((4,5-dimethyl-1H-imidazol-1-yl)methyl)benzyl)-3,9,15,21-tetraisobutyl-4,10,12,16,22,24-hexamethyl-1,7,13,19-tetraoxa-4,10,16,22-tetraazacyclotetracosan-2,5,8,11,14,17,20,23-octaone] | 0.01 to 0.1 µM
14 | CC(C)C[C@H]1C(=O)O[C@H](Cc2ccc(Cn3ccnc3CF)cc2)C(=O)N(C)[C@@H](CC(C)C)C(=O)O[C@H](C)C(=O)N(C)[C@@H](CC(C)C)C(=O)O[C@H](Cc2ccccc2)C(=O)N(C)[C@@H](CC(C)C)C(=O)O[C@H](C)C(=O)N1C [Example 8-14, (3S,6R,9S,12R,15S,18R,21S,24R)-6-benzyl-18-(4-((2-(fluoromethyl)-1H-imidazol-1-yl)methyl)benzyl)-3,9,15,21-tetraisobutyl-4,10,12,16,22,24-hexamethyl-1,7,13,19-tetraoxa-4,10,16,22-tetraazacyclotetracosan-2,5,8,11,14,17,20,23-octaone] | 0.01 to 0.1 µM
